We go through 22 molecules from patent US9776962B2, “Aromatic compounds with GPR40 agonistic activity” (TAKEDA PHARMACEUTICAL COMPANY LIMITED, priority 2013, dated 2017).

The assay deals with T1, human GPR40 (Homo sapiens, UniProt O14842).
T1 construct: expressed in transfected cells
T1 sequence (O14842 whole entry): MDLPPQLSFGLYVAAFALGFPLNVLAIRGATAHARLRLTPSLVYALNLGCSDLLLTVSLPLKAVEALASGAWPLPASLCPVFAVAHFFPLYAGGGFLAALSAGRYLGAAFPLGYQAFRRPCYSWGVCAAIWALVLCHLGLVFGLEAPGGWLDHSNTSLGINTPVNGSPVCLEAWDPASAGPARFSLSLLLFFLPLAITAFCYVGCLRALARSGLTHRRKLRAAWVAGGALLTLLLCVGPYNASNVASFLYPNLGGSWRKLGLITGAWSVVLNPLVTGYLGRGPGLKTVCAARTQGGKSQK
Description: Evaluation of human GPR40 agonist activity with increase in intracellular Ca2+ concentration as an index (FLIPR). The note with it: test compound 1 μM; CHO(dhfr−) cells stably expressing human GPR40; 100% = 10 μM compound of Example 153, 0% = DMSO. It counts as cell-based. As for the experimental part: Plasmid hGPR40/pAKKO-1.11H for mammalian cells expression, wherein cDNA fragment (SEQ ID NO: 1) encoding the full-length human GPR40 was incorporated into an expression vector pAKKO-1.11H (Biochimica et Biophysica Acta vol. 1219 pp. 251-259 (1994)), was transfected into CHO-dhfr(−) cells (ATCC, CRL-9096) by using Lipofectamine 2000 (Invitrogen:11668-019). After transfection, the limiting dilution-culture method was performed to select clone in selection medium (nucleic acid-free α-MEM (Invitrogen:12561-056)) containing 10% dialyzed bovine serum (Invitrogen:26400-044)). The expression level of human GPR40 mRNA was confirmed by TaqMan PCR (Life Technologies), and the intracellular calcium mobilization activity of GPR40 ligand (γ-linolenic acid) was confirmed by FLIPR (Molecular Devices), and a clone of human GPR40 expressing CHO cells was selected.
Evaluation of Human GPR40 Agonist Activity with Increase in Intracellular Ca^2+ Concentration as an Index
CHO(dhfr−) cells that stably expressed human GPR40 were suspended in MEMα (Nikken Bio Medical Laboratory) containing 10% dialyzed bovine serum (JR Scientific), 10 mM HEPES (Life Technologies), 100 U/mL penicillin, 100 μg/mL streptomycin (Life Technologies), and plated on a 384 well black/clear cell culture plate at 10,000 cells/well. After culture overnight in a CO2 incubator at 37° C., the culture supernatant was removed, and loading buffer [Ca^2+ probe attached to Calcium Kit II-iCellux (DOJINDO) was dissolved in assay buffer (20 mM HEPES, 0.1% fatty acid-free BSA (Sigma-Aldrich), 2.5 mM probenecid (DOJINDO)-containing HESS (Life Technologies))] was added at 30 μL/well. After leaving for 1 hr at room temperature under light shielding, assay buffer containing the test compound at a final concentration of 1 μM was added at 10 μL/well in FLIPR Tetra (Molecular Devices), and the fluorescence amount was successively measured. Human GPR40 agonist activity calculated using an increase in the intracellular Ca^2+ concentration as an index, wherein the activity of 10 μM of the compound of Example 153 was 100%, and the activity when DMSO was added instead of the test compound was 0%.
`COc1ccc(C(=O)N(CC2CC2)c2ccccn2)c(N2CCC(COc3cc(C(CC(=O)O)C4CC4)ccn3)CC2)c1` (single isomer, unassigned) [Example 141, 3-cyclopropyl-3-(2-((1-(2-((cyclopropylmethyl)(pyridin-2-yl)carbamoyl)-5-methoxyphenyl)piperidin-4-yl)methoxy)pyridin-4-yl)propanoic acid] gave an activation at 1 µM of 81%.
For `COc1ccc(C(=O)N(CC2CC2)c2ccccn2)c(N2CCC(COc3cc(C(CC(=O)O)C4CC4)ccn3)CC2)c1` (single isomer, unassigned) [Example 142, 3-cyclopropyl-3-(2-((1-(2-((cyclopropylmethyl)(pyridin-2-yl)carbamoyl)-5-methoxyphenyl)piperidin-4-yl)methoxy)pyridin-4-yl)propanoic acid], the “Activity (human GPR40 agonist activity)” value turned out to be 97%.
As to `COc1ccc(C(=O)N(C)CC(C)C)c(N2CCC(COc3cccc(C(CC(=O)O)C4CC4)c3)CC2)c1` (stereo not shown) [Example 1, 3-cyclopropyl-3-(3-((1-(5-methoxy-2-(methyl(2-methylpropyl)carbamoyl)phenyl)piperidin-4-yl)methoxy)phenyl)propanoic acid], the activation at 1 µM stood at 97%.
Regarding `COc1ccc(C(=O)N2CCc3ccccc32)c(N2CCC(COc3cccc(C(CC(=O)O)C4CC4)c3)CC2)c1` (stereo not shown) [Example 4, 3-cyclopropyl-3-(3-((1-(2-(2,3-dihydro-1H-indol-1-ylcarbonyl)-5-methoxyphenyl)piperidin-4-yl)methoxy)phenyl)propanoic acid], the activation at 1 µM was 97%.
Same read-out and setting: to `COc1ccc(C(=O)N2C[C@@H](C)O[C@@H](C)C2)c(N2CCC(COc3cccc(C(CC(=O)O)C4CC4)c3)CC2)c1` (stereo partly drawn) [Example 5, 3-cyclopropyl-3-(3-((1-(2-((cis-2,6-dimethylmorpholin-4-yl)carbonyl)-5-methoxyphenyl)piperidin-4-yl)methoxy)phenyl)propanoic acid] belongs 85%.
On the same count and under the same terms, for `COc1ccc(C(=O)N(CCC#N)c2ccccc2)c(N2CCC(COc3cccc(C(CC(=O)O)C4CC4)c3)CC2)c1` (stereo not shown) [Example 6, 3-(3-((1-(2-((2-cyanoethyl)(phenyl)carbamoyl)-5-methoxyphenyl)piperidin-4-yl)methoxy)phenyl)-3-cyclopropylpropanoic acid] the value was 73%; for `CCc1ccc(C(=O)N(CC(F)(F)C(F)(F)F)C(C)C)c(N2CCC(COc3cccc(C(CC(=O)O)C4CC4)c3)CC2)c1` (stereo not shown) [Example 54, 3-cyclopropyl-3-(3-((1-(5-ethyl-2-((2,2,3,3,3-pentafluoropropyl)(propan-2-yl)carbamoyl)phenyl)piperidin-4-yl)methoxy)phenyl)propanoic acid], 89%; for `CCc1ccc(C(=O)N(CC(C)(C)C)c2cccc(C)n2)c(N2CCC(COc3cccc(C(CC(=O)O)C4CC4)c3)CC2)c1` (stereo not shown) [Example 55, 3-cyclopropyl-3-(3-((1-(2-((2,2-dimethylpropyl)(6-methylpyridin-2-yl)carbamoyl)-5-ethylphenyl)piperidin-4-yl)methoxy)phenyl)propanoic acid], 84%.
The molecule `CCc1ccc(C(=O)N(CC(C)(C)C)c2ccccn2)c(N2CCC(COc3cccc(C(CC(=O)O)C4CC4)c3)CC2)c1` (stereo not shown) [Example 56, 3-cyclopropyl-3-(3-((1-(2-((2,2-dimethylpropyl)(pyridin-2-yl)carbamoyl)-5-ethylphenyl)piperidin-4-yl)methoxy)phenyl)propanoic acid] came in with an activation at 1 µM of 83%.
On the same count and under the same terms, for `CCc1ccc(C(=O)N(C)c2ncco2)c(N2CCC(COc3cccc(C(CC(=O)O)C4CC4)c3)CC2)c1` (stereo not shown) [Example 57, 3-cyclopropyl-3-(3-((1-(5-ethyl-2-(methyl(1,3-oxazol-2-yl)carbamoyl)phenyl)piperidin-4-yl)methoxy)phenyl)propanoic acid] the value was 58%; for `CC(C)(C)CN(C(=O)c1ccc(Cl)nc1N1CCC(COc2cccc(C(CC(=O)O)C3CC3)c2)CC1)c1ccccn1` (stereo not shown) [Example 59, 3-(3-((1-(6-chloro-3-((2,2-dimethylpropyl)(pyridin-2-yl)carbamoyl)pyridin-2-yl)piperidin-4-yl)methoxy)phenyl)-3-cyclopropylpropanoic acid], 73%.
In the case of `CCc1ccc(C(=O)N(CC(C)(C)C)c2ccccn2)c(N2CCC(COc3cccc(C(CC(=O)O)C4CC4)c3)CC2)n1` (stereo not shown) [Example 60, 3-cyclopropyl-3-(3-((1-(3-((2,2-dimethylpropyl)(pyridin-2-yl)carbamoyl)-6-ethylpyridin-2-yl)piperidin-4-yl)methoxy)phenyl)propanoic acid], the activation at 1 µM is 52%.
On the same count and under the same terms, for `COc1ccc(C(=O)N(CC(C)C)c2ccccn2)c(N2CCC(COc3cccc(C(CC(=O)O)C4CC4)c3)CC2)c1` (stereo not shown) [Example 62, 3-cyclopropyl-3-(3-((1-(5-methoxy-2-((2-methylpropyl)(pyridin-2-yl)carbamoyl)phenyl)piperidin-4-yl)methoxy)phenyl)propanoic acid] the value was 101%.
Still for that read-out and setting: for `CCc1ccc(C(=O)N(CC(C)(C)C)c2cccc(C)n2)c(N2CCC(COc3cc(C(CC(=O)O)C4CC4)ccn3)CC2)c1` (stereo not shown) [Example 109, 3-cyclopropyl-3-(2-((1-(2-((2,2-dimethylpropyl)(6-methylpyridin-2-yl)carbamoyl)-5-ethylphenyl)piperidin-4-yl)methoxy)pyridin-4-yl)propanoic acid] the value was 90%.
On to `COc1ccc(C(=O)N(CC(C)(C)C)c2cccc(C)n2)c(N2CCC(COc3cc(C(CC(=O)O)C4CC4)ccn3)CC2)c1` (stereo not shown) [Example 110, 3-cyclopropyl-3-(2-((1-(2-((2,2-dimethylpropyl)(6-methylpyridin-2-yl)carbamoyl)-5-methoxyphenyl)piperidin-4-yl)methoxy)pyridin-4-yl)propanoic acid], for which the “Activity (human GPR40 agonist activity)” value is listed as 104%.
`COc1ccc(C(=O)N(CC(C)(C)C)c2ccccn2)c(N2CCC(COc3cc(C(CC(=O)O)C4CC4)ccn3)CC2)c1` (stereo not shown) [Example 111, 3-cyclopropyl-3-(2-((1-(2-((2,2-dimethylpropyl)(pyridin-2-yl)carbamoyl)-5-methoxyphenyl)piperidin-4-yl)methoxy)pyridin-4-yl)propanoic acid]: the activation at 1 µM stood at 100%.
Consider `COc1ccc(C(=O)N(CC(C)(C)C)c2cc(C)ccn2)c(N2CCC(COc3cc(C(CC(=O)O)C4CC4)ccn3)CC2)c1` (stereo not shown) [Example 112, 3-cyclopropyl-3-(2-((1-(2-((2,2-dimethylpropyl)(4-methylpyridin-2-yl)carbamoyl)-5-methoxyphenyl)piperidin-4-yl)methoxy)pyridin-4-yl)propanoic acid], for which the activation at 1 µM came to 98%.
`COc1ccc(C(=O)N(CC(C)C)c2ccccn2)c(N2CCC(COc3cc(C(CC(=O)O)C4CC4)ccn3)CC2)c1` (stereo not shown) [Example 113, 3-cyclopropyl-3-(2-((1-(5-methoxy-2-((2-methylpropyl)(pyridin-2-yl)carbamoyl)phenyl)piperidin-4-yl)methoxy)pyridin-4-yl)propanoic acid] yielded an activation at 1 µM of 102%.
On the same count and under the same terms, to `COc1ccc(C(=O)N(CC2(C)CC2)c2ccccn2)c(N2CCC(COc3cc(C(CC(=O)O)C4CC4)ccn3)CC2)c1` (stereo not shown) [Example 114, 3-cyclopropyl-3-(2-((1-(5-methoxy-2-(((1-methylcyclopropyl)methyl)(pyridin-2-yl)carbamoyl)phenyl)piperidin-4-yl)methoxy)pyridin-4-yl)propanoic acid] belongs 98%; to `COc1ccc(C(=O)N(CC(C)C)c2ccc(C)cn2)c(N2CCC(COc3cc(C(CC(=O)O)C4CC4)ccn3)CC2)c1` (stereo not shown) [Example 115, 3-cyclopropyl-3-(2-((1-(5-methoxy-2-((2-methylpropyl)(5-methylpyridin-2-yl)carbamoyl)phenyl)piperidin-4-yl)methoxy)pyridin-4-yl)propanoic acid], 96%.
On the same count and under the same terms, to `COc1ccc(C(=O)N(CC(F)(F)F)c2ccccn2)c(N2CCC(COc3cc(C(CC(=O)O)C4CC4)ccn3)CC2)c1` (stereo not shown) [Example 116, 3-cyclopropyl-3-(2-((1-(5-methoxy-2-(pyridin-2-yl(2,2,2-trifluoroethyl)carbamoyl)phenyl)piperidin-4-yl)methoxy)pyridin-4-yl)propanoic acid] belongs 101%.
The molecule `COc1ccc(C(=O)N(CC2CC2)c2ccccn2)c(N2CCC(COc3cc(C(CC(=O)O)C4CC4)ccn3)CC2)c1` (stereo not shown) [Example 117, 3-cyclopropyl-3-(2-((1-(2-((cyclopropylmethyl)(pyridin-2-yl)carbamoyl)-5-methoxyphenyl)piperidin-4-yl)methoxy)pyridin-4-yl)propanoic acid] displayed an activation at 1 µM of 95%.
